The structures appear in SMILES notation.

Format in all cases: in vivo
For test [1], the system named is Soybean variety "Cordoba". As to the kind of experiment: Plant growth test, greenhouse, seed treatment, soybean variety Cordoba. The settings on record: for Green surface, % of untreated: 15 days; for Green surface: 15 days at 20° C., 80% relative humidity. The method, then: (§1) The test is performed in the greenhouse. 7 soybean seeds per treatment of 2 varieties (Cordoba and Isidor) were sown in 5 liter pots containing 13 cm of a mix of steamed field soil and sand (1:1), 2 replicates were made. The tested compound as well as the reference active ingredient were both solved in a standard solvent used for soybean seed application and known to be safe. Seed treatment was performed with the aid of laboratory equipment. For untreated, 4 replicates were made and seeds were treated with the pure solvent. 2 fungicide concentrations were tested: 5 g a.i./100 kg and 10 g a.i./100 kg. Seeds were then covered by 5 cm of the same mix of steamed field soil and sand (1:1). Pots were incubated in the greenhouse 15 days at 20° C. and 80% relative humidity. Assessment consisted of calculation of green surface of soybean (pixel) using a digital imaging software to manage data analysis.

Another test has as its system Soybean variety "Isidor". As to the kind of experiment: Plant growth test, greenhouse, seed treatment, soybean variety Isidor. The settings on record: for Green surface, % of untreated: 15 days; for Green surface: 15 days at 20° C., 80% relative humidity. The method, then: as §1
A further test deals with soybean seeds. The experiment in a line: Emergence of soybean plants after seed treatment. The settings on record: soybean seeds treated.

On to `Cc1nn(C)c(F)c1C(=O)Nc1ccccc1C(C)CC(C)C` (centres unmarked) [Penflufen, N-{2-(1,3-dimethylbutyl)anilino}-1,3-dimethyl-5-fluor-4-pyrazol], for which the “Green surface, % of untreated” value in test [1] (seed treatment 5 g a.i./100kg) is listed as 160 % of untreated; in test [1] (seed treatment 10 g a.i./100kg), 158 % of untreated; with Soybean variety "Isidor" (seed treatment 5 g a.i./100kg), 125 % of untreated; in the test with Soybean variety "Isidor" (seed treatment 10 g a.i./100kg), 133 % of untreated. The Green surface in test [1] (seed treatment 5 g a.i./100kg) was 109373 pixel; in test [1] (seed treatment 10 g a.i./100kg), 108284 pixel; in the test on Soybean variety "Isidor" (seed treatment 5 g a.i./100kg), 105395 pixel; with Soybean variety "Isidor" (seed treatment 10 g a.i./100kg) it was 111543 pixel. Moreover, the “Emergence of the soybean plants in comparison to untreated plants” value in the test with soybean seeds is recorded as “earlier emergence”.

For the molecule `O=C(Nc1ccccc1-c1ccc(Cl)cc1)c1cccnc1Cl` [Boscalid, reference compound], the “Green surface, % of untreated” value in test [1] (seed treatment 5 g a.i./100kg) is reported as 109 % of untreated; in test [1] (seed treatment 10 g a.i./100kg), 113 % of untreated; in the test on Soybean variety "Isidor" (seed treatment 5 g a.i./100kg), 86 % of untreated; in the test with Soybean variety "Isidor" (seed treatment 10 g a.i./100kg), 86 % of untreated. In addition, the Green surface in test [1] (seed treatment 5 g a.i./100kg) was 74661 pixel; in test [1] (seed treatment 10 g a.i./100kg), 77243 pixel; with Soybean variety "Isidor" (seed treatment 5 g a.i./100kg) it was 71972 pixel; in the test on Soybean variety "Isidor" (seed treatment 10 g a.i./100kg), 72634 pixel.

The values above are taken from patent US20110009267A1, “Process for Improving Seedling Growth and/or Early Emergence of Crops” (Bayer CropScience AG, priority 2009, published 2011).
